# Literature values, collected in patent EP1935397A1, “Oral and tooth care and cleaning agents for combating halitosis” (Henkel AG & Co. KGaA, priority 2006, dated 2008).
# Conditions: 20°C
row,Löslichkeit,Compound
1,100 g/l (20°C),Zinkgluconat
2,1843 g/l (20°C),Zinknitrat Hexahydrat
3,960 g/l (20°C),Zinksulfat-Heptahydat
4,4500 g/l (20°C),Zinkiodid
5,"0,9 mg/l (20°C)",Zinkstearat
6,430 g/l (20°C),Zinkacetat-Dihydrat
7,~350 g/l (20°C),Zinksulfat-Monohydrat

# Same assay, conditions: 20°C; result in words
row,Löslichkeit,Compound
1,Fast unlöslich (20°C),Zinkhydroxycarbonat
2,Leicht löslich (20°C),Zinknitrat-Tetrahydrat

# Same assay, conditions: 25°C
row,Löslichkeit,Compound
1,820 g/l (25°C),Zinkbromid
2,4320 g/l (25°C),Zinkchlorid

# Same assay, conditions: temperature not given; result in words
row,Löslichkeit,Compound
1,Unlöslich,[O-2].[Zn+2] [Zinkoxid]
